Results as given in patent US20220305121A1, “N-ARYL SULFONAMIDE DERIVATIVES AS VACCINE ADJUVANT” (The Regents of the University of California, priority 2019, published 2022).
“Also recorded” adds a separate entry of the source.

How the values were obtained:
Assay type in all cases: cell-based
NF-κB and ISRE = NF-κB and ISRE reporter assays (primary screens), statements in words for both assays; details: with LPS or IFN-α as primary stimulus; compared to compound 1
Method: (§1) THP1-Blue™ NF-κB cells were plated in 96-well plates at 10^5 cells/well in 100 μl RPMI supplemented with 10% fetal bovine serum (FBS, Omega Scientific, Inc., Tarzana, Calif.), 100 U/mL penicillin, 100 μg/ml streptomycin (Thermo Fisher Scientific) and Normocin (Invivogen). LPS was prepared in assay medium at a concentration of 20 μg/mL. Tested compounds were dissolved in DMSO at 1 mM as a stock solution and were further diluted in the LPS solution to a final concentration of 10 μM. 100 μL of this solution was then transferred to the plated cells to obtain a final concentration of LPS at 10 μg/mL and compound at 5 μM ([…]). The culture supernatants were harvested after a 20 hour incubation period, SEAP activity in the culture supernatants was determined by a colorimetric assay using QuantiBlue (Invivogen). Plate absorbance was read at 630 nm using a Tecan Infinite M200 plate reader (Männedorf, Switzerland). The SEAP concentration was directly proportional to NF-κB activity, which was 2-point normalized to yield activity of compound 1+LPS as 200% and activity for LPS as 100%.
(§2) ISRE-bla THP-1 cells were plated in 96-well plates at 5×10^4 cells/well in 50 μl RPMI supplemented with 10% dialyzed FBS (Atlanta Biologicals, Inc., GA), 0.1 mM nonessential amino acids, 1 mM sodium pyruvate, 100 U/mL penicillin and 100 μg/ml streptomycin. Type I IFN-α (R&D Systems, #11200-2) solution was prepared in assay medium at a concentration of 200 U/mL Tested compounds were dissolved in DMSO at 1 mM and were further diluted in the IFN-α solution to a final concentration of 10 μM. 50 μL of this solution was then transferred to the plated cells to obtain a final concentration of IFN-α at 100 U/mL and compound at 5 μM ([…]), The cells were incubated for 16 hours, after which 20 μL of 6×LiveBLAzer™ FRET B/G Substrate (CCF4-AM) mixture (prepared according to the manufacturer's instructions) was added to each well, Plates were incubated at room temperature in the dark for 3 hours. Fluorescence was measured on a Tecan Infinite M200 plate reader at an excitation wavelength of 405 nm, and emission wavelengths of 465 nm and 535 nm. Background values (cell free wells at the same fluorescence wavelength) were subtracted from the raw fluorescence intensity values and the emission ratios were calculated as the ratio of background subtracted fluorescence intensities at 465 nm to background subtracted fluorescence intensities at 535 nm. The ISRE activity values for these compounds were 2-point normalized to yield activity of compound 1+IFN-α as 200% and activity for IFN-α as 100%.
(§3) Measurement of NF-κB Activation Using THP1-Blue NF-κB Cells. THP1-Blue NF-κB cells were plated in 96-well plates at 10^5 cells/well in 100 μL of RPMI supplemented with 10% fetal bovine serum (FBS, Omega Scientific, Inc., Tarzana, Calif.), 100 U/mL penicillin, 100 μg/mL streptomycin (Thermo Fisher Scientific), and Normocin (Invivogen). LPS was prepared in assay medium at a concentration of 20 μg/mL. Tested compounds were dissolved in DMSO at 1 mM as a stock solution and were further diluted in the LPS solution to a final concentration of 10 μM. 100 μL of this solution was then transferred to the plated cells to obtain a final concentration of LPS at 10 μg/mL and compound at 5 μM ([…]). The culture supernatants were harvested after a 20 hours incubation period. SEAP activity in the culture supernatants was determined by a colorimetric assay using QuantiBlue (Invivogen). Plate absorbance was read at 630 nm using a Tecan Infinite M200 plate reader (Mannedorf, Switzerland). The SEAP concentration was directly proportional to NF-κB activity, which was two-point normalized to yield activity of compound 1+LPS as 200% and activity for LPS as 100%.
Measurement of ISRE Activity in ISRE-bla THP-1 Cells. […]

ISRE = experiment: Measurement of ISRE activity in ISRE-bla THP-1 cells (FRET, IFN-α as primary stimulus); details: for activity at 5 µM: read-out: ISRE % Activation
Method: as §2
Measurement of ISRE Activity in ISRE-bla THP-1 Cells. ISREbla THP-1 cells were plated in 96-well plates at 5×10^4 cells/well in 50 μL of RPMI supplemented with 10% dialyzed FBS (Atlanta Biologicals, Inc., GA), 0.1 mM nonessential amino acids, 1 mM sodium pyruvate, 100 U/mL penicillin, and 100 μg/mL streptomycin. Type I IFN-α (R&D Systems, no. 11200-2) solution was prepared in assay medium at a concentration of 200 U/mL. Tested compounds were dissolved in DMSO at 1 mM and were further diluted in the IFN-α solution to a final concentration of 10 μM. 50 μL of this solution was then transferred to the plated cells to obtain a final concentration of IFN-α at 100 U/mL and compound at 5 μM ([…]). The cells were incubated for 16 hours, after which 20 μL of 6×LiveBLAzer FRET B/G substrate (CCF4-AM) mixture (prepared according to the manufacturer's instructions) was added to each well. Plates were incubated at room temperature in the dark for 3 hours. Fluorescence was measured on a Tecan Infinite M200 plate reader at an excitation wavelength of 405 nm and emission wavelengths of 465 and 535 nm. Background values (cell free wells at the same fluorescence wavelength) were subtracted from the raw fluorescence intensity values and the emission ratios were calculated as the ratio of background subtracted fluorescence intensities at 465 nm to background subtracted fluorescence intensities at 535 nm. The ISRE activity values for these compounds were two-point normalized to yield activity of compound 1+IFN-α as 200% and activity for IFN-α as 100%.

THP-1 cells = experiment: Cell viability assay (MTT); details: compound 5 μM, 18 hours incubation; normalized to DMSO as 100%; mean
Method: THP-1 cells were plated in 96-well plates (10^5 cells/well) in 100 μL RPMI supplemented with 10% FBS, 100 U/mL penicillin and 100 μg/ml streptomycin. Compounds were dissolved in DMSO at 1 mM stock solution and were further diluted to 10 μM in the assay medium. 100 μL of this solution was added to the cells to obtain a final compound concentration of 5 μM ([…]). After 18 hours incubation, a solution of MTT in assay media (0.5 mg/mL) was added to each well and further incubated for 4 to 6 hours, followed by addition of cell lysis buffer (15% w/v SDS and 0.12% v/v 12N HCl aqueous solution), incubated overnight, and then absorbance measured at 570 nm using 650 nm as reference using Tecan Infinite M200 plate reader.
Cell Viability Assay. THP-1 cells were plated in 96-well plates (10^5 cells/well) in 100 μL RPMI supplemented with 10% FBS, 100 U/mL penicillin, and 100 μg/mL streptomycin. Compounds were dissolved in DMSO at 1 mM stock solution and were further diluted to 10 μM in the assay medium. 100 μL of this solution was added to the cells to obtain a final compound concentration of 5 μM ([…]). After 18 h incubation, a solution of MTT in assay media (0.5 mg/mL) was added to each well and further incubated for 4-6 hours, followed by addition of cell lysis buffer (15% w/v SDS and 0.12% v/v 12 N HCl aqueous solution), incubation overnight, and then absorbance was measured at 570 nm using 650 nm as reference using Tecan Infinite M200 plate reader.

NF-κB = experiment: Measurement of NF-κB activation using THP1-Blue NF-κB cells (SEAP reporter, LPS as primary stimulus)
Method: as §1, §3

[1] = Homo sapiens, THP-1, compound 5 μM + IFN-α 100 U/mL, 16 hours, two point normalized: compound 1 + IFN-α = 200%, IFN-α = 100%, mean
[2] = compound 5 μM + LPS, 20 hour incubation, two point normalized: compound 1 + LPS = 200%, LPS = 100%, mean

| EC50 (ISRE; Homo sapiens, THP-1, dose response in the presence of IFN-α) [nM] | EC50 (NF-κB; dose response in the presence of LPS) [nM] | Structure (SMILES) | activity in NF-κB and ISRE assays (in words) (NF-κB and ISRE) | activity at 5 µM (ISRE; [1]) [%] | MTT % Viability (THP-1 cells) [%] | activity at 5 µM (NF-κB; [2]) [%] | ISRE % Activation (ISRE; compound 5 μM + IFN-α 100 U/mL, 16 hours, two point normalized: compound 1 + IFN-α = 200%, IFN-α = 100%, mean) [%] | NF-κB % Activation (NF-κB; [2]) [%] | ISRE activity (in words) (ISRE; with IFN-α) | NF-κB activity (in words) (NF-κB; with LPS) |
| --- | --- | --- | --- | --- | --- | --- | --- | --- | --- | --- |
| 1400 | 1850 | COc1ccc(S(=O)(=O)Nc2cc(OC)c(Cl)cc2OC)cc1 [Compound 12, N-(4-chloro-2,5-dimethoxyphenyl)-4-methoxybenzenesulfonamide] | tolerated; also recorded: retained activity | 219 | 69.6 | 226 |  |  |  |  |
|  |  | CCCOc1ccc(S(=O)(=O)Nc2cc(OC)c(Cl)cc2OC)cc1 [Compound 13, N-(4-chloro-2,5-dimethoxyphenyl)-4-propoxybenzenesulfonamide] | weakly active; also recorded: retained activity | 125 | 71.3 | 149 |  |  |  |  |
|  |  | C#CCOc1ccc(S(=O)(=O)Nc2cc(OC)c(Cl)cc2OC)cc1 [Compound 15, N-(4-chloro-2,5-dimethoxyphenyl)-4-(prop-2-yn-1-yloxy) benzenesulfonamide] | inactive |  | 80.9 |  | 99 | 97 |  |  |
|  |  | CCCc1ccc(S(=O)(=O)Nc2cc(OC)c(Cl)cc2OC)cc1 [Compound 16, N-(4-chloro-2,5-dimethoxyphenyl)-4-propylbenzenesulfonamide] | loss of activity | 103 | 85.7 | 102 |  |  |  |  |
|  |  | COc1cc(NS(=O)(=O)c2ccc(Oc3ccccc3)cc2)c(OC)cc1Cl [Compound 22, N-(4-chloro-2,5-dimethoxyphenyl)-4-phenoxybenzenesulfonamide] | inactive | 95 | 91.3 | 98 |  |  |  |  |
|  |  | COc1cccc(S(=O)(=O)Nc2cc(OC)c(Cl)cc2OC)c1 [Compound 23, N-(4-chloro-2,5-dimethoxyphenyl)-3-methoxybenzenesulfonamide] | none of these molecules were active | 104 | 79.6 | 116 |  |  |  |  |
|  |  | COc1cc(NS(=O)(=O)c2ccccc2OC)c(OC)cc1Cl [Compound 24, N-(4-chloro-2,5-dimethoxyphenyl)-2-methoxybenzenesulfonamide] | none of these molecules were active | 101 | 92.1 | 96 |  |  |  |  |
|  |  | CCOc1ccc(S(=O)(=O)Nc2cc(OC)c(Cl)cc2OC)cc1Br [Compound 25, 3-Bromo-N-(4-chloro-2,5-dimethoxyphenyl)-4-ethoxybenzenesulfonamide] | inactive | 101 | 85.0 | 87 |  |  |  |  |
|  |  | COc1cc(NS(=O)(=O)c2ccc(C(N)=O)cc2)c(OC)cc1Cl [Compound 27, 4-(N-(4-chloro-2,5-dimethoxyphenyl)sulfamoyl)benzamide] | lost activity | 94 | 91.0 | 103 |  |  |  |  |
|  |  | CCOC(=O)c1ccc(S(=O)(=O)Nc2cc(OC)c(Cl)cc2OC)cc1 [Compound 29, Ethyl 4-(N-(4-chloro-2,5-dimethoxyphenyl)sulfamoyl)benzoate] | retained partial activity | 169 | 70.8 | 189 |  |  |  |  |
|  |  | CNC(=O)c1ccc(S(=O)(=O)Nc2cc(OC)c(Cl)cc2OC)cc1 [Compound 30, 4-(N-(4-chloro-2,5-dimethoxyphenyl)sulfamoyl)-N-methylbenzamide] | completely inactive | 105 | 77.0 | 103 |  |  |  |  |
|  |  | CCOc1ccc(S(=O)(=O)N(c2cc(OC)c(Cl)cc2OC)C(C)C)cc1 [Compound 40, N-(4-chloro-2,5-dimethoxyphenyl)-4-ethoxy-N-isopropylbenzenesulfonamide] | inactive | 169 | 103.2 | 76 |  |  | retaining ISRE activity | eliminated the NF-κB activity; also recorded: loss of NF-κB activity |
|  |  | CCOc1ccc(S(=O)(=O)N(CC(C)C)c2cc(OC)c(Cl)cc2OC)cc1 [Compound 41, N-(4-chloro-2,5-dimethoxyphenyl)-4-ethoxy-N-isobutylbenzenesulfonamide] | regained the activity in both the NF-κB and ISRE assays | 193 | 76.7 | 175 |  |  |  |  |
